Reference: PMC3422614 (Biochemistry, 2011)
Entries after “also recorded” stand apart in the source; their conditions may differ. Where two headings read alike, the source gives them in different places. One block for each molecule: values may come before it. Where no end group is shown, it is not given here.

What was measured:
ERK2 [1] = biological target: T1, ERK2 (Rattus norvegicus, UniProt P63086); test: Dose-response effect of docking ligands on ERK2 phosphorylation of Sub-F; type: biochemical
ERK2 [2] = biological target: T1, ERK2; test: Dose-response effect of docking ligands on ERK2 phosphorylation of Sub-D; type: biochemical
ERK2 [3] = biological target: T1, ERK2; test: Inhibition patterns for the phosphorylation of Sub-F by ERK2; type: biochemical
ERK2 [4] = biological target: T1, ERK2; test: Inhibition patterns for the phosphorylation of Sub-D by ERK2; type: biochemical
ERK2 [5] = biological target: T1, ERK2; test: Kinetics of Sub-F phosphorylation by ERK2 at saturating Lig-D; type: biochemical
ERK2 [6] = biological target: T1, ERK2; type: biochemical
ERK•Ets-1 complex = conditions: cited from earlier work
ERK2 [7] = biological target: T1, ERK2; conditions: protein substrate; cited from earlier work

T1 sequence (P63086 whole entry): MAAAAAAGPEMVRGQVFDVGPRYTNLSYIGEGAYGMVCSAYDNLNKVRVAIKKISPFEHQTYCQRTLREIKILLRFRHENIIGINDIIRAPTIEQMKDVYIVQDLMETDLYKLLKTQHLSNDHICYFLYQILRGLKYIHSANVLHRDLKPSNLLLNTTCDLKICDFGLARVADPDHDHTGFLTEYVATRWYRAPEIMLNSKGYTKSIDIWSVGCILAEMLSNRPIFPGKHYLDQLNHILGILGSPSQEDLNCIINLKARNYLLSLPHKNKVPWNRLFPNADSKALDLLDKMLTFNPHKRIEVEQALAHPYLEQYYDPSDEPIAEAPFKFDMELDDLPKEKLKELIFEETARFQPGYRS

Molecule: CC(=O)N[C@@H](Cc1ccccc1)C(=O)N[C@@H](CCC(N)=O)C(=O)N[C@@H](CCCNC(=N)N)C(=O)N[C@@H](CCCCN)C(=O)N[C@H](C(=O)N[C@@H](CC(C)C)C(=O)N[C@@H](CCC(N)=O)C(=O)N[C@@H](CCCNC(=N)N)C(=O)N[C@@H](CCCNC(=N)N)C(=O)N[C@@H](CC(N)=O)C(=O)N[C@@H](CC(C)C)C(=O)N[C@@H](CCCCN)C(=O)NCC(=O)N[C@@H](CC(C)C)C(=O)N[C@@H](CC(N)=O)C(=O)N[C@@H](CC(C)C)C(=O)N[C@@H](CC(N)=O)C(=O)N[C@@H](CC(C)C)C(N)=O)[C@@H](C)O [Lig-D]
- EC50 (ERK2 [1]): 10 ± 8 µM
- IC50 (ERK2 [2]): 30 ± 4 µM

Molecule: Ac-YAPRAPAKLAFQFPSR-NH2 [Lig-F]
- Mechanism of inhibition (ERK2 [3]; varied MgATP, fixed Sub-F): Noncompetitive
- Mechanism of inhibition (ERK2 [3]; varied Sub-F, fixed MgATP): Competitive
- IC50 (ERK2 [1]): 35 ± 3 µM
- Effect on Sub-F phosphorylation (kobs) (ERK2 [1]; Fig. 5B, Sub-F 15 μM, 1 mM MgATP, increasing ligand): competitively inhibits Sub-F
- Effect on Sub-D phosphorylation (kobs) (ERK2 [2]; Fig. 5A, Sub-D 3 μM, 1 mM MgATP, increasing ligand): no effect on kobs for the phosphorylation of Sub-D; also recorded: no effect on the ability of ERK2 to phosphorylate Sub-D

B1: Ets: murine (His6-tagged)Ets1(1-138), protein substrate of ERK2 (protein, UniProt P27577 1-138, looked up, fragment)
chain: MKAAVDLKPTLTIIKTEKVDLELFPSPDMECADVPLLTPSSKEMMSQALKATFSGFTKEQQRLGIPKDPRQWTETHVRDWVMWAVNEFSLKGVDFQKFCMSGAALCALGKECFLELAPDFVGDILWEHLEILQKEDVK
modifications: His6 tag
- stabilization of the ERK•Ets-1 complex by Ets-1 N-terminus docking to the DRS (ERK•Ets-1 complex): approximately 10 fold
- Kinetic mechanism of phosphorylation (ERK2 [7]): random-order mechanism
- kcat/Km (ERK2 [7]): 6e+06 M⁻¹ s⁻¹
- kcat (ERK2 [6]; Table 1, fit to eqn. 2, 27 °C, pH 7.4, 2 nM ERK2): 17 ± 1 S^−1

Further lines, results first:

- Mechanism of inhibition (ERK2 [3]; varied MgATP, fixed Sub-F): competitive pattern for towards MgATP^2-
- Mechanism of inhibition (ERK2 [3]; varied Sub-F, fixed MgATP): Noncompetitive
- Mechanism of inhibition (ERK2 [4]; varied MgATP, fixed Sub-D): competitive pattern for towards MgATP^2-
- Mechanism of inhibition (ERK2 [4]; varied Sub-D, fixed MgATP): Noncompetitive
Molecule: Nc1ncnc2c1ncn2[C@@H]1O[C@H](COP(=O)([O-])OP(=O)([O-])O)[C@@H](O)[C@H]1O.[Mg+2] [MgADP]

- Ki (ERK2 [5]): 5 ± 2 µM
- Ki (ERK2 [6]): 3.3 ± 1.1 µM
Molecule: YAEPLTPRILAKWEWPA-NH2 [Sub-F]
